According to US8034548B2, “Methods and materials for assessing prostate cancer therapies” (The Regents of the University of California, priority 2003, dated 2011):

What was measured:
[1] = system: LNCaP cells infected with the empty vector; assay: in vitro growth in low androgen concentrations, vector control cells; format: cell-based, human; details: failed to grow unless supplemented
Excerpt: (§1) To determine if increased AR protein concentration plays a causal role in the HS-to-HR transition, we introduced an epitope-tagged wildtype AR cDNA by retrovirus infection into HS LNCaP human prostate cancer cells. A three-fold increase in AR levels in LNCaP-AR cells mimics the expression difference observed in the LNCaP HS/HR pair studied in the microarray experiment. To test whether increased AR expression causes the HS-to-HR transition, we designed two in vitro assays to mimic the clinical circumstances of HR disease. […] In contrast, LNCaP-AR cells grew in at least 80% lower concentrations of R1881.
(§2) Details of typical in vitro and in vivo growth experiments are as follows: LNCaP (ATCC) and LAPC4 cells were maintained in Iscove's medium supplemented with 10% fetal bovine serum. […] In vivo tumorigenicity was measured by injection of 5×10^5 LAPC4 or 1×10^6 LNCaP cells in 100 μl of Matrigel (Collaborative Biomedical) subcutaneously into the flanks of intact or castrated male SCID mice. Tumor size was measured weekly in three dimensions using caliber as described.^26 AR knockdown was performed by infection of HR LAPC4 with shRNA AR lentivirus. Tumors which grew in castrated mice were explanted, and analyzed by flow cytometry for the percentage of GFP-positive cells. […]

[2] = target: AR transcription complex on the promoters of PSA and KLK2 (Homo sapiens, UniProt P10275, T878A)
Method: Soluble chromatin was prepared after formaldehyde crosslinking and sonication. Specific IgGs against AR, N—CoR, PolII, Ac—H3/4, SRC1, TIF2, AIB1, and PCAF were used to immunoprecipitate protein-bound DNA fragments.

LNCaP-AR cells [3] = assay: Affymetrix U133A microarray of induced genes, AR-overexpressing cells; format: cell-based, human
LNCaP-AR cells [4] = assay: in vitro growth in low androgen concentrations, AR-overexpressing cells; format: cell-based, human; details: compared with 100 pM needed by vector cells
Excerpt: as §1, §2

Chain of AR transcription complex on the promoters of PSA and KLK2 (P10275 whole entry T878A, the tested form may be a part, one chain of several): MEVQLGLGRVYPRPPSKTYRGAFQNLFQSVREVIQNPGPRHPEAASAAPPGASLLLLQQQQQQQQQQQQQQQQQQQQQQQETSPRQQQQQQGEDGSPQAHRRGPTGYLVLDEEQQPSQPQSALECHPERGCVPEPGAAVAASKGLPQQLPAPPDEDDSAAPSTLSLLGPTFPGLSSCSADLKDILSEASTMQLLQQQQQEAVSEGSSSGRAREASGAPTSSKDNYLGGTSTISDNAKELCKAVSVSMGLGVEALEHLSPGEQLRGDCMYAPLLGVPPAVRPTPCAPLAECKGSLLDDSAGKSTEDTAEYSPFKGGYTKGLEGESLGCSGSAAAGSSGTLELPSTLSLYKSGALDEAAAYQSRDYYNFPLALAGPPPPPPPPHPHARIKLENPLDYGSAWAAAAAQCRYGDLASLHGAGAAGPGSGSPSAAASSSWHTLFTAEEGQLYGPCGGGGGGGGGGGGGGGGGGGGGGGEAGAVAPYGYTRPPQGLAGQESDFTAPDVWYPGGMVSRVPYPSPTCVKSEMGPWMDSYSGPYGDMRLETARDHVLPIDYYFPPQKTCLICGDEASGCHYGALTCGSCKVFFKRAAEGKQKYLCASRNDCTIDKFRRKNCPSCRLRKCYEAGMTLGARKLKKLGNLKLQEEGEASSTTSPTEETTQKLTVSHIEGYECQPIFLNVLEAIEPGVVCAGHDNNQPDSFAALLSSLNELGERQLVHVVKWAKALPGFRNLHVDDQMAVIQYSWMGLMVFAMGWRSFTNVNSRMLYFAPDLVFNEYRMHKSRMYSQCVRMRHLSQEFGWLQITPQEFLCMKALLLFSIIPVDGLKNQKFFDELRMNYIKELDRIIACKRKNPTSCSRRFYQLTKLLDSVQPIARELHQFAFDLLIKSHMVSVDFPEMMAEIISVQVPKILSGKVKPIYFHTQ

Compound | R1881 supplement needed for growth in steroid-depleted, charcoal-stripped serum [1] | recruitment of AR and polymerase II to PSA and KLK2 promoters [2] | total number of androgen-regulated genes (LNCaP-AR cells [3]; increasing doses of R1881) | lower concentration of R1881 in which cells grew (LNCaP-AR cells [4]) | subset of the total number of androgen-regulated genes induced (LNCaP-AR cells [3]; LNCaP-AR, 10 μM bicalutamide)
C[C@]1(O)CC[C@H]2[C@@H]3CCC4=CC(=O)CCC4=C3C=C[C@@]21C [R1881] | 100 pM | AR and polymerase II were recruited to both promoters regardless of AR level | > 600 probe sets | at least 80% | 
CC(O)(CS(=O)(=O)c1ccc(F)cc1)C(=O)Nc1ccc(C#N)c(C(F)(F)F)c1 (centres unmarked) [bicalutamide] |  |  |  |  | < 10%
